System: RNA probe (thiol / methylene blue E-AB aptamer) (RNA, aptamer) GGGACUUGGUUUAGGUAAUGAGUCCC
Assay: electrochemical aptamer-based sensor, square wave voltammetry
Settings: 100 mM NaCl, 5 mM MgCl2; 20 mM Tris, pH 7.5; aptamer immobilised on gold

For `NC[C@H]1O[C@H](O[C@H]2[C@H](O)[C@@H](O[C@H]3O[C@H](CO)[C@@H](O)[C@H](N)[C@H]3O)[C@H](N)C[C@@H]2N)[C@H](O)[C@@H](O)[C@@H]1O`, the dissociation constants was 281 µM.
